Laboratory results as given in patent publication US20250136606A1, “MODULATORS OF TRPML, THEIR COMPOSITIONS AND METHODS OF USE” (Caraway Therapeutics, Inc., priority 2021, published 2025).
pEC50: −log10 of the molar value. Read-outs that look alike come from different tables or passages of the source.

Assays:
Assay type in all cases: cell-based
[1] = biological target: TRPML1 (Homo sapiens, UniProt Q9GZU1); assay: Fluorescent TRPML1 assay (Fluo4-AM calcium fluorescence in doxycycline-induced HEK-293 Trex cells)
Method in brief: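 HEK-293 Trex cells stably carrying human TRPML1 (surface-trafficking mutant) were induced overnight with 0.5 ug/mL doxycycline, loaded with 1 micromolar Fluo4-AM, and suspended in Ringer's with 10 mM calcium. Compounds at 20 micromolar to 6 nanomolar final, half-log steps, triplicate; fluorescence 480/540 nm gave percent activity versus controls and EC50 by non-linear regression.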

[2] = biological target: T1, TRPML2 (Homo sapiens, UniProt Q8IZK6); assay: Fluorescent TRPML2 assay (performed as for TRPML1, substituting the TRPML2 subtype)
T1 construct: expressed in transfected cells
T1 sequence (Q8IZK6 1-566): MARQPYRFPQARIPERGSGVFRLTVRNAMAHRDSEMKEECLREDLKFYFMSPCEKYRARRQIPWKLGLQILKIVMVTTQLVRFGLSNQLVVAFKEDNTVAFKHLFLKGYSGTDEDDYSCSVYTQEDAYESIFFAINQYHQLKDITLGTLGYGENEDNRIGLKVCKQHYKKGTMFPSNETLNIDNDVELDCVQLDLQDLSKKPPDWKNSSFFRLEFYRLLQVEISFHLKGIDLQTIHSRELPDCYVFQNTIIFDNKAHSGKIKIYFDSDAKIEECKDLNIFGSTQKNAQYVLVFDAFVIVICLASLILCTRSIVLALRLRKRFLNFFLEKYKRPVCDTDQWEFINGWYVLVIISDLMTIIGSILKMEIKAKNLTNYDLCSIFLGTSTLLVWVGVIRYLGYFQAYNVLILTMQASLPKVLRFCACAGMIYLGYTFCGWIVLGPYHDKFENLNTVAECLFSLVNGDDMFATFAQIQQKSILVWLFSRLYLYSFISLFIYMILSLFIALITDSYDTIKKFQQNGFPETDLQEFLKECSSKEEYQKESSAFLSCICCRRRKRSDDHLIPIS
Protocol: HEK-293 Trex cells were stably transfected with a construct consisting of the human coding sequence for TRPML1 cloned into the […] plasmid pCDNA5 T/O. Mutations were introduced into the TRPML1 sequence to facilitate expression on the cell surface (Silvia Vergarajauregui, Rosa Puertollano, Traffic. 2006 March; 7(3): 337-353). Briefly, the cells are cultured in 150 mm round tissue culture dishes containing 20 mL of media. The day before the assay the cells are rinsed with DPBS-Ca—Mg and then treated briefly with Trypsin-EDTA. The Trypsin-EDTA is diluted with growth media, and cells are counted. 38×10^6 cells are re-plated into 150 mm round tissue culture dishes in media containing 0.5 ug/mL doxycycline to induce expression of hTRPML1.
The day of the experiment cells are lifted from the plates as above and collected by centrifugation. The cells are then suspended in dye loading buffer consisting of Ringer's solution supplemented with 0.1% Pluronic Acid and 1 micromolar Fluo4-AM dye. Cells are loaded for ˜60 minutes in the dark with occasional mixing. The cells are collected by centrifugation, the loading media aspirated, and the cells resuspended in 25 mL Ringer's solution and incubated ˜60 minutes in the dark. The cells are again collected by centrifugation, rinsed in Ringer's Solution and resuspended to […] in modified Ringer's solution containing 10 mM calcium.
Compounds are dissolved to a concentration of 10 millimolar with DMSO. Compound plates are created by dispensing compounds into 384 well black wall clear bottom plates (Greiner 781091). Positive and negative controls are included on each plate. Typically, different amounts of each compound are tested ranging from 100 nanoMoles (20 micromolar final concentration) decreasing in half-log steps to 31 picoMoles (6 nanomolar final concentration). Each concentration is typically tested in triplicate.
50 microliters of dye-loaded cells are dispensed into each well of the compound assay plate created above. The fluorescence in each well is then determined with an excitation wavelength of 480 nm and an emission wavelength of 540 nm using either a Molecular Devices SpectraMax multimode plate reader or a Hamamatsu FDSS/uCell plate imager.
The resulting fluorescence for each well is exported as an ascii file and loaded into our LIMS for analysis. The percent activity of each compound at each concentration is determined by comparison to the positive and negative control wells included in each plate.
TRPML2 and TRPML3 Assays Assays for TRPML2 and TRPML3 were performed as above for TRPML1, by substituting the appropriate TRPML2 or TRPML3 subtype for the TRPML1.
EC50 values were calculated using a non-linear regression of Prism. In the table, “A” indicates an EC50 of less than 100 nM, “B” indicates an EC50 range from 100 nM to 500 nM; “C” indicates an EC50 range from 500 nM to 2 μM; and “D” indicates an EC50 greater than 2 μM.

[3] = biological target: T2, TRPML3 (Homo sapiens, UniProt Q8TDD5); assay: Fluorescent TRPML3 assay (performed as for TRPML1, substituting the TRPML3 subtype)
T2 construct: expressed in transfected cells
T2 sequence (Q8TDD5 1-553): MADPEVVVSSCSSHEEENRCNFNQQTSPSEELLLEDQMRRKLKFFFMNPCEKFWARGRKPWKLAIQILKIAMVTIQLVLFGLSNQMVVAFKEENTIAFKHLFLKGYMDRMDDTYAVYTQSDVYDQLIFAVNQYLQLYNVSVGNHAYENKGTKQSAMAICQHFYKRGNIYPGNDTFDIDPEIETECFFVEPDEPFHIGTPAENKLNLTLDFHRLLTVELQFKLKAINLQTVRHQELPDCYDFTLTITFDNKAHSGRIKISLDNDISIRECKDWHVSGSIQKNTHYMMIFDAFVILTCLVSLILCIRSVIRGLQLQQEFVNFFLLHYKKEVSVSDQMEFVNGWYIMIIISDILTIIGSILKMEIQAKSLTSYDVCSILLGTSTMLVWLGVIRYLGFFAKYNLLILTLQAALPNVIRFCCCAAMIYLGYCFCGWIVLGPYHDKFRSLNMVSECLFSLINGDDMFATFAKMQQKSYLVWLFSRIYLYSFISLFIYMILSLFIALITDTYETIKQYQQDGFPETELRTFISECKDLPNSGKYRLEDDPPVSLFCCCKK
Method in brief: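 Agonist activity is scored as percent of plate controls from Fluo4 fluorescence after dye-loaded, doxycycline-induced HEK-293 Trex cells meet compound in high-calcium (10 mM) Ringer's. Compounds run in half-log dilutions from 20 micromolar final, in triplicate.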

Sequence of TRPML1 (Q9GZU1 whole entry L15A/L16A/L577A/L578A, form open): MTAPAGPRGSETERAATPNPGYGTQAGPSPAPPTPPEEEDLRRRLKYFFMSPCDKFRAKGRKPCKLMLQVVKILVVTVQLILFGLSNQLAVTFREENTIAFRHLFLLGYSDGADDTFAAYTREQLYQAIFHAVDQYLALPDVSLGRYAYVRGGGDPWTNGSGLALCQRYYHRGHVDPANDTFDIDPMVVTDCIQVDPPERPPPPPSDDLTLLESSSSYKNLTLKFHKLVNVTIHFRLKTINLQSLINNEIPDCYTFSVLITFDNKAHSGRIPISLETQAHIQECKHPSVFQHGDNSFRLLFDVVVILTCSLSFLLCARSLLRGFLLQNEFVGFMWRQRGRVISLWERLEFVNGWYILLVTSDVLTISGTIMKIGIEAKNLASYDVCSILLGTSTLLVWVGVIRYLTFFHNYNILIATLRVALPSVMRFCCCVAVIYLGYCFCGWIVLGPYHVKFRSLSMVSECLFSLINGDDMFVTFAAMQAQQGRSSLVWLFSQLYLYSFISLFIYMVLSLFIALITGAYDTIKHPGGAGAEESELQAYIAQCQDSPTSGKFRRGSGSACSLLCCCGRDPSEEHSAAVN

Row | SMILES | pEC50 ([1]; fluorescent calcium assay) | pEC50 ([2]; fluorescent calcium assay) | pEC50 ([3]; fluorescent calcium assay) | pEC50 [1] | pEC50 [2] | pEC50 [3]
1 | C[C@@H]1CN(c2ncnc3c2c(C2CC2)cn3-c2cc(C#N)ccn2)CCN1C(=O)OC(C)(C)C [Compound 384, tert-butyl (R)-4-(7-(4-cyanopyridin-2-yl)-5-cyclopropyl-7H-pyrrolo[2,3-d]pyrimidin-4-yl)-2-methylpiperazine-1-carboxylate] | > 7.00 | 6.30 to 7.00 | > 7.00 | – | – | –
2 | Cc1nccnc1-c1cn(-c2cc(F)cc(F)c2)c2ncnc(N3C[C@@H](C)N(C(=O)OC(C)(C)C)C[C@@H]3C)c12 [Compound 462, tert-butyl (2R,5S)-4-(7-(3,5-difluorophenyl)-5-(3-methylpyrazin-2-yl)-7H-pyrrolo[2,3-d]pyrimidin-4-yl)-2,5-dimethylpiperazine-1-carboxylate] | > 7.00 | 6.30 to 7.00 | > 7.00 | – | – | –
3 | C[C@@H]1CN(c2ncnc3c2c(-c2ccccc2F)cn3-c2cnn(C)c2)[C@@H](C)CN1C(=O)OC(C)(C)CF [Compound 185, 1-fluoro-2-methylpropan-2-yl (2R,5S)-4-(5-(2-fluorophenyl)-7-(1-methyl-1H-pyrazol-4-yl)-7H-pyrrolo[2,3-d]pyrimidin-4-yl)-2,5-dimethylpiperazine-1-carboxylate] | > 7.00 | 5.70 to 6.30 | > 7.00 | – | – | –
4 | CCOC(=O)N1C[C@H](C)N(c2ncnc3c2c(-c2ccccc2F)cn3-c2cc(C)ccn2)C[C@H]1C [Compound 144, ethyl (2R,5S)-4-(5-(2-fluorophenyl)-7-(4-methylpyridin-2-yl)-7H-pyrrolo[2,3-d]pyrimidin-4-yl)-2,5-dimethylpiperazine-1-carboxylate] | > 7.00 | 5.70 to 6.30 | > 7.00 | – | – | –
5 | C[C@H]1CN(C(=O)OC(C)(C)C)CCN1c1ncnc2c1c(C1CC1)cn2-c1cc(F)ccc1F [Compound 218, tert-butyl (S)-4-(5-cyclopropyl-7-(2,5-difluorophenyl)-7H-pyrrolo[2,3-d]pyrimidin-4-yl)-3-methylpiperazine-1-carboxylate] | > 7.00 | 5.70 to 6.30 | > 7.00 | – | – | –
6 | CCOC(=O)N1C[C@H](C)N(c2ncnc3c2c(-c2cccnc2)cn3-c2cccc(Cl)c2)C[C@H]1C [Compound 133, Ethyl (2R,5S)-4-(7-(3-chlorophenyl)-5-(pyridin-3-yl)-7H-pyrrolo[2,3-d]pyrimidin-4-yl)-2,5-dimethylpiperazine-1-carboxylate] | 6.30 to 7.00 | < 5.70 | 5.70 to 6.30 | – | – | –
7 | C[C@H]1CN(C(=O)OC(C)(C)C)CCN1c1ncnc2c1c(C1CC1)cn2-c1ccc(Cl)cc1 [Compound 114, tert-butyl (S)-4-(7-(4-chlorophenyl)-5-cyclopropyl-7H-pyrrolo[2,3-d]pyrimidin-4-yl)-3-methylpiperazine-1-carboxylate] | > 7.00 | > 7.00 | > 7.00 | – | – | –
8 | CC(C)(C)OC(=O)N1CCN(c2ncnc3c2c(C2CC2)cn3-c2cc(F)cc(F)c2)CC12CC2 [Compound 258, tert-Butyl 7-(5-cyclopropyl-7-(3,5-difluorophenyl)-7H-pyrrolo[2,3-d]pyrimidin-4-yl)-4,7-diazaspiro[2.5]octane-4-carboxylate] | > 7.00 | 5.70 to 6.30 | > 7.00 | – | – | –
9 | C[C@@H]1CN(c2ncnc3c2c(-c2ccccc2F)cn3-c2cc(C(F)(F)F)ccn2)[C@@H](C)CN1C(=O)OC(C)(C)C [Compound 649, tert-butyl (2R,5S)-4-(5-(2-fluorophenyl)-7-(4-(trifluoromethyl)pyridin-2-yl)-7H-pyrrolo[2,3-d]pyrimidin-4-yl)-2,5-dimethylpiperazine-1-carboxylate] | – | – | – | > 7.00 | > 7.00 | > 7.00
10 | C[C@@H]1CN(c2cn(-c3cccc(C#N)c3)c3ncnc(N4CCN(C(=O)OC(C)(C)C)C[C@@H]4C)c23)CCO1 [Compound 363, tert-butyl (S)-4-(7-(3-cyanophenyl)-5-((R)-2-methylmorpholino)-7H-pyrrolo[2,3-d]pyrimidin-4-yl)-3-methylpiperazine-1-carboxylate] | 6.30 to 7.00 | 5.70 to 6.30 | > 7.00 | – | – | –
11 | C[C@H]1CN(C(=O)OC(C)(C)C(F)(F)F)CCN1c1ncnc2c1c(C1CC1)cn2C1CCCCC1 [Compound 325, 1,1,1-trifluoro-2-methylpropan-2-yl (S)-4-(7-cyclohexyl-5-cyclopropyl-7H-pyrrolo[2,3-d]pyrimidin-4-yl)-3-methylpiperazine-1-carboxylate] | 6.30 to 7.00 | 6.30 to 7.00 | > 7.00 | – | – | –
12 | C[C@@H]1CN(c2ncnc3c2c(C2CC2)cn3-c2cc(F)cc(F)c2)[C@@H](C)CN1C(=O)OC1(C)CC1 [Compound 655, 1-methylcyclopropyl (2R,5S)-4-(5-cyclopropyl-7-(3,5-difluorophenyl)-7H-pyrrolo[2,3-d]pyrimidin-4-yl)-2,5-dimethylpiperazine-1-carboxylate] | – | – | – | > 7.00 | > 7.00 | 6.30 to 7.00
13 | C[C@@H]1CN(c2ncnc3c2c(N(C)C)cn3-c2cccc(Cl)c2)CCN1C(=O)OC(C)(C)C [Compound 430, tert-butyl (R)-4-(7-(3-chlorophenyl)-5-(dimethylamino)-7H-pyrrolo[2,3-d]pyrimidin-4-yl)-2-methylpiperazine-1-carboxylate] | > 7.00 | 6.30 to 7.00 | > 7.00 | – | – | –
14 | Cc1nccnc1-c1cn(-c2cc(F)cc(F)c2)c2ncnc(N3CCN(C(=O)OC(C)(C)C)[C@H](C)C3)c12 [Compound 242, tert-butyl (R)-4-(7-(3,5-difluorophenyl)-5-(3-methylpyrazin-2-yl)-7H-pyrrolo[2,3-d]pyrimidin-4-yl)-2-methylpiperazine-1-carboxylate] | 6.30 to 7.00 | 6.30 to 7.00 | 6.30 to 7.00 | – | – | –
15 | C[C@@H]1CN(c2ncnc3c2c(-c2ccncc2)cn3-c2cc(F)cc(F)c2)CCN1C(=O)OC(C)(C)C [Compound 216, tert-butyl (R)-4-(7-(3,5-difluorophenyl)-5-(pyridin-4-yl)-7H-pyrrolo[2,3-d]pyrimidin-4-yl)-2-methylpiperazine-1-carboxylate] | > 7.00 | 5.70 to 6.30 | 6.30 to 7.00 | – | – | –
